Assays:
[1] = biological target: Receptor tyrosine-protein kinase erbB-4 (Homo sapiens) (UniProt Q15303); test: Inhibition of ERBB4 at 10 uM; values are per cent of control
[2] = system: Tyrosine-protein kinase ABL1 (Homo sapiens), P00519 [H396P]; test: Inhibition of non phosphorylated ABL1 H396P mutant at 10 uM; settings: values are per cent of control
[3] = biological target: Serine/threonine-protein kinase 33 (Homo sapiens) (UniProt Q9BYT3); test: Inhibition of STK33 at 10 uM
[4] = biological target: Serine/threonine-protein kinase 4 (Homo sapiens) (UniProt Q13043); test: Inhibition of MST1 at 10 uM
[5] = biological target: Serine/threonine-protein kinase BRSK1 (Homo sapiens) (UniProt Q8TDC3); test: Inhibition of BRSK1 at 10 uM; settings: values are per cent of control
[6] = biological target: Serine/threonine-protein kinase pim-3 (Homo sapiens) (UniProt Q86V86); test: Inhibition of PIM3 at 10 uM
[7] = biological target: Dual specificity protein kinase CLK2 (Homo sapiens) (UniProt P49760); test: Inhibition of CLK2 at 10 uM; settings: values are per cent of control
[8] = biological target: Mitogen-activated protein kinase 9 (Homo sapiens) (UniProt P45984); test: Inhibition of JNK2 at 10 uM; values are per cent of control
[9] = biological target: Serine/threonine-protein kinase NIM1 (Homo sapiens) (UniProt Q8IY84); test: Inhibition of NIM1 at 10 uM
[10] = biological target: Calcium/calmodulin-dependent protein kinase type 1 (Homo sapiens) (UniProt Q14012); test: Inhibition of CAMK1 at 10 uM; settings: values are per cent of control
[11] = system: Phosphatidylinositol 4,5-bisphosphate 3-kinase catalytic subunit alpha isoform (Homo sapiens), P42336 [C420R]; test: Inhibition of PIK3CA C420R mutant at 10 uM
[12] = biological target: Dual specificity tyrosine-phosphorylation-regulated kinase 1B (Homo sapiens) (UniProt Q9Y463); test: Inhibition of DYRK1B at 10 uM; settings: values are per cent of control
[13] = biological target: Tyrosine-protein kinase Fer (Homo sapiens) (UniProt P16591); test: Inhibition of FER at 10 uM; settings: values are per cent of control
[14] = biological target: Ribosomal protein S6 kinase alpha-4 (Homo sapiens) (UniProt O75676); test: Inhibition of RPS6KA4 C-terminal domain2 at 10 uM
Sequence of Ribosomal protein S6 kinase alpha-4 (Homo sapiens) (O75676 whole entry, looked up, the tested form may be a part): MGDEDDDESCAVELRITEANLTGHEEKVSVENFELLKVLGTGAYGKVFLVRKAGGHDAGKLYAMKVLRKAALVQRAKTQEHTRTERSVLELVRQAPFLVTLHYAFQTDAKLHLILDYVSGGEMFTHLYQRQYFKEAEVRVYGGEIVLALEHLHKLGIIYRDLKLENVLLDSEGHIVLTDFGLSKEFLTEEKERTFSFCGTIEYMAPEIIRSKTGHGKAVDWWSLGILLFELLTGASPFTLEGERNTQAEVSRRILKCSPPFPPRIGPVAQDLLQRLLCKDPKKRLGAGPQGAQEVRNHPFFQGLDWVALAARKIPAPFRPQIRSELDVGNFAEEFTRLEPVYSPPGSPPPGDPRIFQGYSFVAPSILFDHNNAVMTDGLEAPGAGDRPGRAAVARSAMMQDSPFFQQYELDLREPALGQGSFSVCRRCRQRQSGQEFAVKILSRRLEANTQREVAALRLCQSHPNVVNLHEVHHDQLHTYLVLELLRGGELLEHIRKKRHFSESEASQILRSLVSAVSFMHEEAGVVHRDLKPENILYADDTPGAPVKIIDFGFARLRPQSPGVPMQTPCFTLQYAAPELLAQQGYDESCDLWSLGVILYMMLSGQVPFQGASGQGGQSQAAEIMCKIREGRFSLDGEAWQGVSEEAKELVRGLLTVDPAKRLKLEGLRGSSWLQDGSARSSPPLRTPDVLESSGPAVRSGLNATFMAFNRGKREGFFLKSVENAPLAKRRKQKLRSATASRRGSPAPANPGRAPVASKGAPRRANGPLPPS

[15] = biological target: Mitogen-activated protein kinase 1 (Homo sapiens) (UniProt P28482); test: Inhibition of ERK2 at 10 uM; values are per cent of control
[16] = biological target: Phosphorylase b kinase gamma catalytic chain, skeletal muscle/heart isoform (Homo sapiens) (UniProt Q16816); test: Inhibition of PHKG1 at 10 uM
Sequence of Phosphorylase b kinase gamma catalytic chain, skeletal muscle/heart isoform (Homo sapiens) (Q16816 whole entry, looked up, canonical isoform): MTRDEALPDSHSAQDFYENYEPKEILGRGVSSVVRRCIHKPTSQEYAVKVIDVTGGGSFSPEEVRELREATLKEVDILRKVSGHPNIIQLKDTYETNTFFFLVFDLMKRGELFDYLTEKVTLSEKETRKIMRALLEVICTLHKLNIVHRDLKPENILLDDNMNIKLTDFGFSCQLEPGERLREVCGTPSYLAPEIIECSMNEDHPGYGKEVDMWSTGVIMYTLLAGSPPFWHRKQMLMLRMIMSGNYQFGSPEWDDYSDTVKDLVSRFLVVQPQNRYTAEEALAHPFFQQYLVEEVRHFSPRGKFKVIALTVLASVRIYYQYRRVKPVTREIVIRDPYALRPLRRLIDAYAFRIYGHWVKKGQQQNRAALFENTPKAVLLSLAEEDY

[17] = biological target: Serine/threonine-protein kinase SIK1 (Homo sapiens) (UniProt P57059); test: Inhibition of SIK at 10 uM; values are per cent of control
[18] = system: Epidermal growth factor receptor (Homo sapiens), P00533 [L861Q]; test: Inhibition of EGFR L861Q mutant at 10 uM; values are per cent of control
[19] = biological target: Mitogen-activated protein kinase kinase kinase kinase 4 (Homo sapiens) (UniProt O95819); test: Inhibition of MAP4K4 at 10 uM; settings: values are per cent of control
[20] = biological target: Dual specificity mitogen-activated protein kinase kinase 5 (Homo sapiens) (UniProt Q13163); test: Inhibition of MEK5 at 10 uM; settings: values are per cent of control
[21] = biological target: Serine/threonine-protein kinase Nek6 (Homo sapiens) (UniProt Q9HC98); test: Inhibition of NEK6 at 10 uM
[22] = biological target: Interleukin-1 receptor-associated kinase 4 (Homo sapiens) (UniProt Q9NWZ3); test: Inhibition of IRAK4 at 10 uM; values are per cent of control
[23] = biological target: Calcium/calmodulin-dependent protein kinase type II subunit gamma (Homo sapiens) (UniProt Q13555); test: Inhibition of CAMK2G at 10 uM; settings: values are per cent of control
[24] = biological target: Serine/threonine-protein kinase 17A (Homo sapiens) (UniProt Q9UEE5); test: Inhibition of DRAK1 at 10 uM; values are per cent of control
[25] = biological target: Cyclin-dependent kinase 5 (Homo sapiens) (UniProt Q00535); test: Inhibition of CDK5 at 10 uM; values are per cent of control
Sequence of Cyclin-dependent kinase 5 (Homo sapiens) (Q00535 whole entry, looked up): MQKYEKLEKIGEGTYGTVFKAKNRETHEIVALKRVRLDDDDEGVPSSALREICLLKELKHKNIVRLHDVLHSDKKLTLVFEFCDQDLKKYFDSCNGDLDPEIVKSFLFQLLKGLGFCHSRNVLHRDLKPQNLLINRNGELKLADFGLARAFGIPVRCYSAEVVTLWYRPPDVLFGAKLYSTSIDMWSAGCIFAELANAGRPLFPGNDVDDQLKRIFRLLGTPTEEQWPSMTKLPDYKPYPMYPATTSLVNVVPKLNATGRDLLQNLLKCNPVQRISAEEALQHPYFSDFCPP

[26] = system: Mast/stem cell growth factor receptor Kit (Homo sapiens), P10721 [L576P]; test: Inhibition of KIT L576P mutant at 10 uM; settings: values are per cent of control
Sequence of Mast/stem cell growth factor receptor Kit (Homo sapiens), P10721 [L576P] (P10721 whole entry L576P): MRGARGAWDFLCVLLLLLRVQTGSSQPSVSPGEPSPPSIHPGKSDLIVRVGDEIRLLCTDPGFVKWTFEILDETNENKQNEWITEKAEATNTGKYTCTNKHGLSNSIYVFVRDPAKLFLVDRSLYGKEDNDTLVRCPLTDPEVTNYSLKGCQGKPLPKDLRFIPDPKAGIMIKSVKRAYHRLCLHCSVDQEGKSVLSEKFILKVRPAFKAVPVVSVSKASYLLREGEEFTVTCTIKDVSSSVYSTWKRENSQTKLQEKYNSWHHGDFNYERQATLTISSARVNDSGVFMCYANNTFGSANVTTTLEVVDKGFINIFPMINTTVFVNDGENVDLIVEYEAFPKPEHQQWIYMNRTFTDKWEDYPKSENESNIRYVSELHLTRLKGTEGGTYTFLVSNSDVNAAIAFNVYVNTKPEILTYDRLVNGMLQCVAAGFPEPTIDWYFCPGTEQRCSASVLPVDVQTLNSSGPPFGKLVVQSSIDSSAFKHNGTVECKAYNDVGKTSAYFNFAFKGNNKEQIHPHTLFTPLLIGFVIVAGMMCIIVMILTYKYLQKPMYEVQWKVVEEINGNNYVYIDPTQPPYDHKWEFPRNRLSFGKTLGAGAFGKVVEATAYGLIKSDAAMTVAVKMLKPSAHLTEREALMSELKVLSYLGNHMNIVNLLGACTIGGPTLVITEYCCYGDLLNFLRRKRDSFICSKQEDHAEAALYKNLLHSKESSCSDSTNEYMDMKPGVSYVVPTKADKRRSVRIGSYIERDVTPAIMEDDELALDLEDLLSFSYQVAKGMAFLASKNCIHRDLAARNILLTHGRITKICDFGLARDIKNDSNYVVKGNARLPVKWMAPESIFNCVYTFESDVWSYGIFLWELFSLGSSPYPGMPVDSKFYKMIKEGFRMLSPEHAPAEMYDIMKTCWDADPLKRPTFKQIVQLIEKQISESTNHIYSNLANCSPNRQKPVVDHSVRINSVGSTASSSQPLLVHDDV

[27] = system: Tyrosine-protein kinase ABL1 (Homo sapiens), P00519 [E255K]; test: Inhibition of phosphorylated ABL1 E255K mutant at 10 uM; settings: values are per cent of control
[28] = biological target: Focal adhesion kinase 1 (Homo sapiens) (UniProt Q05397); test: Inhibition of FAK at 10 uM; settings: values are per cent of control
[29] = biological target: Megakaryocyte-associated tyrosine-protein kinase (Homo sapiens) (UniProt P42679); test: Inhibition of CTK at 10 uM; settings: values are per cent of control
[30] = biological target: Phosphatidylinositol 4,5-bisphosphate 3-kinase catalytic subunit alpha isoform (Homo sapiens) (UniProt P42336); test: Inhibition of PIK3CA at 10 uM; values are per cent of control
[31] = biological target: Mitogen-activated protein kinase 13 (Homo sapiens) (UniProt O15264); test: Inhibition of p38delta at 10 uM; values are per cent of control
[32] = biological target: Tyrosine-protein kinase ITK/TSK (Homo sapiens) (UniProt Q08881); test: Inhibition of ITK at 10 uM; values are per cent of control
[33] = biological target: Serine/threonine-protein kinase TNNI3K (Homo sapiens) (UniProt Q59H18); test: Inhibition of TNNI3K at 10 uM; settings: values are per cent of control
[34] = biological target: Homeodomain-interacting protein kinase 2 (Homo sapiens) (UniProt Q9H2X6); test: Inhibition of HIPK2 at 10 uM; settings: values are per cent of control
Sequence of Homeodomain-interacting protein kinase 2 (Homo sapiens) (Q9H2X6 whole entry, looked up): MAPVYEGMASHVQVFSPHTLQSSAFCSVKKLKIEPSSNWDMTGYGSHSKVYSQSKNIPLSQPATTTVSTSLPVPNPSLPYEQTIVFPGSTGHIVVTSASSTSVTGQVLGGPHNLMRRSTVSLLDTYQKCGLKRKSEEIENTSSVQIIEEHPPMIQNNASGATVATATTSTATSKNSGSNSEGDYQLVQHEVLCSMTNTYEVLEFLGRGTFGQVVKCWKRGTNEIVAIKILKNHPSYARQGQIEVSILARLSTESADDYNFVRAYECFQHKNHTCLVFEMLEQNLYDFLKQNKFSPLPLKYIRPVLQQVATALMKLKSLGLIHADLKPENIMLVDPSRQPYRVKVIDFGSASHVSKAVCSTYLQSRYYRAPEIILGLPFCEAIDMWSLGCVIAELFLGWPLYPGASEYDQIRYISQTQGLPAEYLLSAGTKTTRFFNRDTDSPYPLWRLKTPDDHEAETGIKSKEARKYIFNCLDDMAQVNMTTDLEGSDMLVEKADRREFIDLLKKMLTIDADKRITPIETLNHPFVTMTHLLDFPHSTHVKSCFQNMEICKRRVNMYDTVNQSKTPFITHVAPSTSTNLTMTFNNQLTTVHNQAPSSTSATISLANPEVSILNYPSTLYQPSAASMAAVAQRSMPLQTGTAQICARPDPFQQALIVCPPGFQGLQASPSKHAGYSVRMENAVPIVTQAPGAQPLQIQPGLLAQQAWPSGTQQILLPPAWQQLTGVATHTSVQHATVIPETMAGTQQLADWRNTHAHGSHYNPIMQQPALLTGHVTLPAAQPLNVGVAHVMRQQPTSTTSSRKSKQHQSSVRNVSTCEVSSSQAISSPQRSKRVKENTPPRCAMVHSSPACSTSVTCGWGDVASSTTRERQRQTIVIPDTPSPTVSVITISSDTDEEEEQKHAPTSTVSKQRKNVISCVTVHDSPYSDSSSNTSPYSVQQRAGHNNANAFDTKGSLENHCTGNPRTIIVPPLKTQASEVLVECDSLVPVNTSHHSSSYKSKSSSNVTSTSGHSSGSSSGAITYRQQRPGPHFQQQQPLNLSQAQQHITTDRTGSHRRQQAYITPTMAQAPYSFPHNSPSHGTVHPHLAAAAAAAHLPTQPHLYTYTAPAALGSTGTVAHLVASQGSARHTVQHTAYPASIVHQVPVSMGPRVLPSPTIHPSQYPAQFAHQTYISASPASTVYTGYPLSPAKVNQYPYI

[35] = biological target: Serine/threonine-protein kinase Nek1 (Homo sapiens) (UniProt Q96PY6); test: Inhibition of NEK1 at 10 uM
[36] = biological target: Phosphatidylinositol 4-phosphate 5-kinase type-1 gamma (Homo sapiens) (UniProt O60331); test: Inhibition of PIP5K1C at 10 uM
Sequence of Phosphatidylinositol 4-phosphate 5-kinase type-1 gamma (Homo sapiens) (O60331 whole entry): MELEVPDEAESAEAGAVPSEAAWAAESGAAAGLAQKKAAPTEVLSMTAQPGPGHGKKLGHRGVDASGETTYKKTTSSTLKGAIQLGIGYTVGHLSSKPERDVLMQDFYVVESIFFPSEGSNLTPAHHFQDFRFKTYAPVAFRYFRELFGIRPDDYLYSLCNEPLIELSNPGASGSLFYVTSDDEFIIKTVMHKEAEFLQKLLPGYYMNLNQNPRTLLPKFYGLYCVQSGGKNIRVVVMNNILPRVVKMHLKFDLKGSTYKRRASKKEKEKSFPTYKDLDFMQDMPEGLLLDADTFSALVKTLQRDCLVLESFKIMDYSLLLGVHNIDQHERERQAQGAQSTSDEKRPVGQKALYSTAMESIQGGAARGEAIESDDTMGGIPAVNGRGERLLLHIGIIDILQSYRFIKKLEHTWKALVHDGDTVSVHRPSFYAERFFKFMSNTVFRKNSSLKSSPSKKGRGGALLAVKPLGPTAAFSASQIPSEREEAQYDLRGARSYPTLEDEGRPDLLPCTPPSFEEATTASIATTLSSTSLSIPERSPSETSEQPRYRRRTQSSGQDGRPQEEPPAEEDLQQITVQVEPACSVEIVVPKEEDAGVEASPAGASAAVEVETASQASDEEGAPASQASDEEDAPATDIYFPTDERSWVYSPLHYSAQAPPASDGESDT

[37] = biological target: SRSF protein kinase 2 (Homo sapiens) (UniProt P78362); test: Inhibition of SRPK2 at 10 uM
[38] = biological target: Serine/threonine-protein kinase PLK1 (Homo sapiens) (UniProt P53350); test: Inhibition of PLK1 at 10 uM
[39] = biological target: Ribosomal protein S6 kinase alpha-6 (Homo sapiens) (UniProt Q9UK32); test: Inhibition of RSK4 N-terminal domain1 at 10 uM
Sequence of Ribosomal protein S6 kinase alpha-6 (Homo sapiens) (Q9UK32 whole entry, the tested form may be a part): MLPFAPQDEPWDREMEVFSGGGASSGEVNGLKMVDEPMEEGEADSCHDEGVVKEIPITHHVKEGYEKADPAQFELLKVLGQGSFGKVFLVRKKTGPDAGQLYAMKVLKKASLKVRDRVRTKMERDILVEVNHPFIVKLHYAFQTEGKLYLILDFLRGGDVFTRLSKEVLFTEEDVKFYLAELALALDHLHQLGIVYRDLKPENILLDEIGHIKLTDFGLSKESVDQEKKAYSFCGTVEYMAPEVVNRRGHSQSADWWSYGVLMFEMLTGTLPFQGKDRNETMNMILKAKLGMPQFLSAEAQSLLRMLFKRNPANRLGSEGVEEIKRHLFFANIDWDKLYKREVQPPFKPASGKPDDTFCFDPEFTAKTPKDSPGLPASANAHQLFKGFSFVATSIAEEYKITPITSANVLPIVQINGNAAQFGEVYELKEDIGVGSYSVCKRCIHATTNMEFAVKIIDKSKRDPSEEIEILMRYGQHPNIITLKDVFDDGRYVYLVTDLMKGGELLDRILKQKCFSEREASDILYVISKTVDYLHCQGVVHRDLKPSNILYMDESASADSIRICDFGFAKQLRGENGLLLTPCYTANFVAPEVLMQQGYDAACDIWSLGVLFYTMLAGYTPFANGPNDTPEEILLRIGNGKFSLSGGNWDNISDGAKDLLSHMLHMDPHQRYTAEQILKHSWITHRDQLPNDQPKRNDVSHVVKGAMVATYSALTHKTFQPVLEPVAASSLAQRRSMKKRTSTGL

[40] = biological target: Ribosomal protein S6 kinase alpha-4 (Homo sapiens) (UniProt O75676); test: Inhibition of RPS6KA4 N-terminal domain1 at 10 uM
[41] = biological target: Ribosomal protein S6 kinase alpha-6 (Homo sapiens) (UniProt Q9UK32); test: Inhibition of RSK4 C-terminal domain2 at 10 uM

`CCN1CCN(Cc2ccc(NC(=O)c3ccc(C)c(C#Cc4cnc5[nH]ccc5c4)c3)cc2C(F)(F)F)CC1` gave a level, % of control [1] of 0.1%, a residual binding, % of control [2] of 0.05% and an inhibition [3] of 6.8%. For the same compound, the inhibition [4] was 12%, the residual binding, % of control [5] was 100% and the inhibition [6] was 100%. The residual binding, % of control [7] was 100%, the level, % of control [8] was 0% and the inhibition [9] was 98%. For the same compound, the residual binding, % of control [10] was 20%, the inhibition [11] was 95% and the residual binding, % of control [12] was 15%. For the same compound, the residual binding, % of control [13] was 2.6%, the inhibition [14] was 87% and the level, % of control [15] was 100%. It also gave an inhibition [16] of 100%, a % of control [17] of 0.25% and a level, % of control [18] of 0%. The residual binding, % of control [19] was 1.8%, the residual binding, % of control [20] was 0.4% and the inhibition [21] was 73%. It also gave a level, % of control [22] of 64%, a residual binding, % of control [23] of 92% and a % of control [24] of 24%. The level, % of control [25] was 24%, the residual binding, % of control [26] was 0% and the residual binding, % of control [27] was 0.2%. The residual binding, % of control [28] was 59%, the residual binding, % of control [29] was 45% and the level, % of control [30] was 93%. The % of control [31] was 2.6%, the level, % of control [32] was 2.2% and the residual binding, % of control [33] was 0%. For the same compound, the residual binding, % of control [34] was 46%, the inhibition [35] was 50% and the inhibition [36] was 100%. It also gave an inhibition [37] of 63%, an inhibition [38] of 56% and an inhibition [39] of 28%. The inhibition [40] was 3.6% and the inhibition [41] was 29%.
`CCN1CCN(Cc2ccc(NC(=O)c3ccc(C)c(C#Cc4cccnc4)c3)cc2C(F)(F)F)CC1` showed a level, % of control [1] of 1.8%, a residual binding, % of control [2] of 0% and an inhibition [3] of 14%. The inhibition [4] was 23%, the residual binding, % of control [5] was 84% and the inhibition [6] was 100%. It also gave a residual binding, % of control [7] of 88%, a level, % of control [8] of 0% and an inhibition [9] of 97%. It also gave a residual binding, % of control [10] of 40%, an inhibition [11] of 72% and a residual binding, % of control [12] of 47%. For the same compound, the residual binding, % of control [13] was 11%, the inhibition [14] was 99% and the level, % of control [15] was 100%. The inhibition [16] was 88%, the % of control [17] was 0.45% and the level, % of control [18] was 0.2%. For the same compound, the residual binding, % of control [19] was 3.3%, the residual binding, % of control [20] was 0.4% and the inhibition [21] was 90%. For the same compound, the level, % of control [22] was 72%, the residual binding, % of control [23] was 95% and the % of control [24] was 87%. The level, % of control [25] was 10%, the residual binding, % of control [26] was 0% and the residual binding, % of control [27] was 0.05%. It also gave a residual binding, % of control [28] of 75%, a residual binding, % of control [29] of 35% and a level, % of control [30] of 100%. For the same compound, the % of control [31] was 2.5%, the level, % of control [32] was 44% and the residual binding, % of control [33] was 0%. For the same compound, the residual binding, % of control [34] was 34%, the inhibition [35] was 77% and the inhibition [36] was 90%. For the same compound, the inhibition [37] was 81%, the inhibition [38] was 58% and the inhibition [39] was 47%. The inhibition [40] was 30% and the inhibition [41] was 6.8%.

Reference: ChEMBL document CHEMBL1177794, “Broad spectrum alkynyl inhibitors of T315I Bcr-Abl” (Bioorg Med Chem Lett, 2010)
